Drawing on ChEMBL document CHEMBL1287687, “5-benzyloxytryptamine as an antagonist of TRPM8” (Bioorg Med Chem Lett, 2010), this text covers IC50 and inhibition for twelve compounds.

pIC50: −log10 of the molar value. Active and inactive are the calls of the source. The rule behind the calls is not given here.

Assay [1] deals with T1, Transient receptor potential cation channel subfamily M member 8 (Homo sapiens, UniProt Q7Z2W7). Briefly: Antagonist activity at human TRPM8 receptor expressed in human T-REx-293 cells assessed as inhibition of icilin-induced 45calcium influx treated 5 mins before icilin challenge measured after 5 mins. In kind it is functional, cell-based, HEK293.
Target sequence in this assay (Q7Z2W7 whole entry): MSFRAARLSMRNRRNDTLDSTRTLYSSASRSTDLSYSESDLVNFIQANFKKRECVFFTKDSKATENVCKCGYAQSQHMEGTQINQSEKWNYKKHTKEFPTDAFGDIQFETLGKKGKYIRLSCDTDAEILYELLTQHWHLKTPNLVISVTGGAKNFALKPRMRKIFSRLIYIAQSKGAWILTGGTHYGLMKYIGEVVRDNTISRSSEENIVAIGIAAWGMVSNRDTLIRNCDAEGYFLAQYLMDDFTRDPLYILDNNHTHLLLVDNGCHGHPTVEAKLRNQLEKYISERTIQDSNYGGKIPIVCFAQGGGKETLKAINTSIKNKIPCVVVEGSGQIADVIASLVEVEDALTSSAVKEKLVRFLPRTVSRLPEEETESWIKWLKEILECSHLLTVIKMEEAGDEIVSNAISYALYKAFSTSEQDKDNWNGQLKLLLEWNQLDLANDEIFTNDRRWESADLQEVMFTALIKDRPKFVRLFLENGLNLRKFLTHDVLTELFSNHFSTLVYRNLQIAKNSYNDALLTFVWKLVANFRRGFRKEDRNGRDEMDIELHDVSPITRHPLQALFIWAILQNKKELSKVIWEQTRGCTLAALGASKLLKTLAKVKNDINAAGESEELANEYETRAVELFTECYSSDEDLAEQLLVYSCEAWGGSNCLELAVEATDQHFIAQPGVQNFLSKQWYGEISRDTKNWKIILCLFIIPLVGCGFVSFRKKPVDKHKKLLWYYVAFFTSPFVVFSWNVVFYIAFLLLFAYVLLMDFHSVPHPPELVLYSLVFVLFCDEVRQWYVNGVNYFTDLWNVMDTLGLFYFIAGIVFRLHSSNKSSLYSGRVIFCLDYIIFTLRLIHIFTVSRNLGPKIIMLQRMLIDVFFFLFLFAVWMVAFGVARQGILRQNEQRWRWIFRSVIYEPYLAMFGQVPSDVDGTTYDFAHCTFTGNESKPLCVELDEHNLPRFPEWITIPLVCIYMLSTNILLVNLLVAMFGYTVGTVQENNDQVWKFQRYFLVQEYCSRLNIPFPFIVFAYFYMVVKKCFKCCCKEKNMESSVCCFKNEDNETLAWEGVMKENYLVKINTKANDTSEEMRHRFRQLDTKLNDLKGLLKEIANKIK
The target of assay [2] is T1, Transient receptor potential cation channel subfamily M member 8. Briefly: Antagonist activity at human TRPM8 receptor expressed in human T-REx-293 cells assessed as inhibition of menthol-induced 45calcium influx treated 5 mins before menthol challenge measured after 5 mins. In kind it is functional, cell-based, HEK293. The settings on record: for pIC50: read-out: IC50; for IC50: hek293.
Target sequence in this assay (Q7Z2W7 whole entry): as above

The target of assay [3] is Transient receptor potential cation channel subfamily V member 4 (Homo sapiens) (UniProt Q9HBA0). Description: Inhibition of TRPV4 receptor up to 10 uM.
Chain of Transient receptor potential cation channel subfamily V member 4 (Homo sapiens) (Q9HBA0 whole entry): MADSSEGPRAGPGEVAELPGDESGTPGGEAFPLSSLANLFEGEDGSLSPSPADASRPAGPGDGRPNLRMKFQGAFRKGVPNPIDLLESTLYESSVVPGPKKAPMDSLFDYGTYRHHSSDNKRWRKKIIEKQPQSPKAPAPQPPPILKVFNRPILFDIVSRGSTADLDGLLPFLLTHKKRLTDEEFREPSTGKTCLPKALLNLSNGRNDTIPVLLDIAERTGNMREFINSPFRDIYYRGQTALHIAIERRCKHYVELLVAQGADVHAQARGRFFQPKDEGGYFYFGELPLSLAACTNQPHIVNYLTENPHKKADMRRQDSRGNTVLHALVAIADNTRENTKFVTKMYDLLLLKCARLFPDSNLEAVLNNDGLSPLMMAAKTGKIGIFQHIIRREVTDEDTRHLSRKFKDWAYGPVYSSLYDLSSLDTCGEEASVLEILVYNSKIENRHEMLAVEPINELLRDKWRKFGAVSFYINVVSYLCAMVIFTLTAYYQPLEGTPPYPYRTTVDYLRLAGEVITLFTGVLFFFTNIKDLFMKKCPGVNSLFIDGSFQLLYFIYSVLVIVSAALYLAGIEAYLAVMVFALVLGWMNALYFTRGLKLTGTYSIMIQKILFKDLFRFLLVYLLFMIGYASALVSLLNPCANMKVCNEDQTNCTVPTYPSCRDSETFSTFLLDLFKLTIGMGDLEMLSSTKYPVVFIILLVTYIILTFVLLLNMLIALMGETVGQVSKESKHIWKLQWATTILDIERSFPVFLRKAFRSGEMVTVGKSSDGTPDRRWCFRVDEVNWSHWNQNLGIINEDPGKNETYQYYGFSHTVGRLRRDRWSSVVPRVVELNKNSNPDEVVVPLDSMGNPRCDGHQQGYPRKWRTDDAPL
Assay [4] deals with Transient receptor potential cation channel subfamily V member 1 (Homo sapiens) (UniProt Q8NER1). Briefly: Inhibition of TRPV1 receptor up to 10 uM.
Chain of Transient receptor potential cation channel subfamily V member 1 (Homo sapiens) (Q8NER1 whole entry): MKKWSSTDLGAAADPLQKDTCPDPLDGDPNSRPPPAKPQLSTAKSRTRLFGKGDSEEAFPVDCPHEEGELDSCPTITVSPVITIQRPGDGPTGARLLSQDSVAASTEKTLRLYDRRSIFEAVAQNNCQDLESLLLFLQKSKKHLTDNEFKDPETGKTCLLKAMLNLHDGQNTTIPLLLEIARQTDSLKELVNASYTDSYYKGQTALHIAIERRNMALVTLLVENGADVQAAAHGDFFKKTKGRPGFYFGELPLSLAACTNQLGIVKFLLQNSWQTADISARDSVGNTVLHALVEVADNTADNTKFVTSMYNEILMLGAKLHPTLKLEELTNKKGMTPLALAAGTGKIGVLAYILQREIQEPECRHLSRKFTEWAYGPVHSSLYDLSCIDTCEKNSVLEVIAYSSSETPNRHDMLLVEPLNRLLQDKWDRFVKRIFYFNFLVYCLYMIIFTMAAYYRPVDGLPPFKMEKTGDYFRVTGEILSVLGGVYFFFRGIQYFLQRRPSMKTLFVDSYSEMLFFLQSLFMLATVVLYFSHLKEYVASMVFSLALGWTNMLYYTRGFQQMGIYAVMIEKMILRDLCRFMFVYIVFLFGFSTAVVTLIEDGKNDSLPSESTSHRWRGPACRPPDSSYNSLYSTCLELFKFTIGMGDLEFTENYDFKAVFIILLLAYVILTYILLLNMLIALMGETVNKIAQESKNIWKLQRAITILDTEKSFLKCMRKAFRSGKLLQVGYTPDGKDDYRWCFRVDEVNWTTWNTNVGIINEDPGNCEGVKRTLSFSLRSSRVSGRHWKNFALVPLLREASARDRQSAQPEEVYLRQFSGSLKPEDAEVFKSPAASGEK
The target of assay [5] is T1, Transient receptor potential cation channel subfamily M member 8. The settings on record: HEK293, 1 uM.
Target sequence in this assay (Q7Z2W7 whole entry, looked up): as the sequence (Q7Z2W7 whole entry) above
Description: Antagonist activity at human TRPM8 receptor expressed in HEK cells assessed as inhibition of WS-12-stimulated current at 1 uM pretreated for 2 mins by patch clamp assay
The target of assay [6] is Transient receptor potential cation channel subfamily A member 1 (Homo sapiens) (UniProt O75762). Briefly: Inhibition of TRPA1 receptor up to 10 uM.
Chain of Transient receptor potential cation channel subfamily A member 1 (Homo sapiens) (O75762 whole entry): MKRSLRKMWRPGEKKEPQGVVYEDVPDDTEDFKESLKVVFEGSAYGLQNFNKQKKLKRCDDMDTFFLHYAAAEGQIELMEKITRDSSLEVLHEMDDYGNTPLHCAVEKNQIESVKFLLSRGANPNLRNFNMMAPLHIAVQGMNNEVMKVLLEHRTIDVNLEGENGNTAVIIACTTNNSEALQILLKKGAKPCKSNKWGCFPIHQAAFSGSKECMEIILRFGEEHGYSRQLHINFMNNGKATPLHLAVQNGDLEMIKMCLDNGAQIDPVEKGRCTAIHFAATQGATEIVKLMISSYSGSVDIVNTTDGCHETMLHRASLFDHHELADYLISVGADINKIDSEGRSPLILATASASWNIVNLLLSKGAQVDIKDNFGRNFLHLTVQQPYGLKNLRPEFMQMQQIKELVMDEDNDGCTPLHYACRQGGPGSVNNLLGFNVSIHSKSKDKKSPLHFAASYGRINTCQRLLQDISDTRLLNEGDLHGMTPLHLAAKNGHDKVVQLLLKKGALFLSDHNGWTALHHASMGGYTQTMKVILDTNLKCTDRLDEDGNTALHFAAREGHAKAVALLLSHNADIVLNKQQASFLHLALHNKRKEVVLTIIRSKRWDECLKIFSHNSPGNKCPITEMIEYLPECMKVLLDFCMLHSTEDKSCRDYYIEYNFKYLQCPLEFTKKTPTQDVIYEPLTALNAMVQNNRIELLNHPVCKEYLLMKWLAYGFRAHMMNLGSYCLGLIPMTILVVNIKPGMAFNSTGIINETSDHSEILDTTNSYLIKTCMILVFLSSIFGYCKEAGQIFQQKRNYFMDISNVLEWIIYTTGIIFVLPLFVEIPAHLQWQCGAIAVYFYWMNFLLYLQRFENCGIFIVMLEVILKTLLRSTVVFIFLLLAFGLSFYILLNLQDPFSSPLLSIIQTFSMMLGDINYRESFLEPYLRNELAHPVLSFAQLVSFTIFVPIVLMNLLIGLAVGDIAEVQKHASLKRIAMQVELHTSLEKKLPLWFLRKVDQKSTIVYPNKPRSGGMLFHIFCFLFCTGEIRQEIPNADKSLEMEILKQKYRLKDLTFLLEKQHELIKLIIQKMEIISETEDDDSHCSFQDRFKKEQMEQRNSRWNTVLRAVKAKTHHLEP
Assay [7] deals with T1, Transient receptor potential cation channel subfamily M member 8. Briefly: Antagonist activity at human TRPM8 receptor expressed in HEK cells assessed as inhibition of WS-12-stimulated current at 100 uM pretreated for 2 mins by patch clamp assay. In kind it is functional, cell-based. The settings on record: HEK293. Background: Patch clamp records ionic current or voltage across a cell membrane.
Target sequence in this assay (Q7Z2W7 whole entry, looked up): as the sequence (Q7Z2W7 whole entry) above

For orientation: pIC50 means the negative decadic logarithm of the IC50, by convention in mol/L. As to `NCCc1c[nH]c2ccc(F)cc12`, the negative-log IC50 (pIC50) is 4.88 in assay [1] and 4.91 in assay [2].
With `c1ccc(COc2ccc3[nH]ccc3c2)cc1`, the IC50 entry in assay [2] is given as “Not Active”.
For the compound `Cc1[nH]c2ccc(OCc3ccccc3)cc2c1CCN`, the pIC50 is 5.63 in assay [1] and 5.82 in assay [2].
In the case of `N#CCc1c[nH]c2ccc(OCc3ccccc3)cc12`, in assay [2], the IC50 entry is reported as “Not Active”.
Take `NCCc1c[nH]c2ccc(Br)cc12`: the values for the negative logarithm of the IC50 (pIC50) in assay [1] and in assay [2] were 4.52 and 4.64, respectively.
The matching figures for `CCOC(=O)NCCc1c[nH]c2ccc(OCc3ccccc3)cc12`: 4.54 and 4.67.
Regarding `NCCc1c[nH]c2c(OCc3ccccc3)cccc12`, the results for the negative logarithm of the IC50 (pIC50) in assay [1] and in assay [2] were 5.05 and 5.48, respectively.
`NCCc1c[nH]c2ccc(OCc3ccccc3)cc12` [5-BENZYLOXYTRYPTAMINE]: the inhibition entry in assay [3], in assay [4] and in assay [6] was “inactive” throughout. The pIC50 is 6.18 in assay [1] and 6.47 in assay [2]. Also, the inhibition result in assay [5] was “Active”.
For `COc1ccc2[nH]cc(CCN)c2c1` [5-METHOXYTRYPTAMINE], the figures for the pIC50 in assay [1] and in assay [2] were 4.94 and 4.91, respectively.
The corresponding values for `CN(C)CCc1c[nH]c2ccc(OCc3ccccc3)cc12` are 5.22 and 5.25.
Take `NCCc1c[nH]c2ccc(O)cc12`: the inhibition entry in assay [7] is “inactive”.
With `NCCc1c[nH]c2ccc(Cl)cc12`, the results for the pIC50 in assay [1] and in assay [2] were 4.49 and 4.67, respectively.
